According to US20210228523A1, “MODULATORS OF SESTRIN-GATOR2 INTERACTION AND USES THEREOF” (Navitor Pharmaceuticals, Inc., priority 2017, published 2021):

What was measured:
[1] = tested on: marmosets (Callithrix jacchus); test: Marmoset Human Threat Test (HTT); type: in vivo; settings: Example J, ketamine 0.3 mg/kg i.m.
From the text: Marmoset Human Threat Test (HTT): Marmosets were challenged by the presence of a human observer over a long period of time on a regular basis. Such chronic stimulation is known to increase plasma cortisol and the subsequent increase in hypothalamic-pituitary-adrenal function contributed to the pathophysiology of depressive illness.
Study Design: Thirty-six (36) marmosets (Callithrix jacchus) were paired and divided randomly divided into treatment groups. Twenty-four hours before the Human Threat Test (HTT) animals were treated with vehicle, ketamine (0.3 mg/kg; i.m.) or NV-5138 (160 mg/kg; p.o.). The following day, the same animals were treated with either vehicle (s.c.) or chloriazepoxide (1 mg/kg; s.c.). The animals were then monitored for the number of threat postures over a two (2) minutes period with the presence of a human observer. Locomotor activity was monitored over the same period, as measured by the number of jumps observed.

[2] = tested on: Male Sprague Dawley rats; test: Novelty Suppressed Feeding Test (NSFT) with home cage feeding control; type: in vivo, rat; settings: Example I; Ket 10 mg/kg i.p. on alternate days (day 0, 2, 4, 6); day 9
Experimental: Behavioral Analysis Using the Novelty Suppressed Feeding Test (NSFT): The NSFT was conducted as previously described (Warner-Schmidt, J. L. & Duman, R. S. PNAS 104(11): 4647-52 (2007)). Rats were fasted in their home cages for 20 hr and then placed in a Plexiglas open field (76.5 cm×76.5 cm×40 cm) with a small amount of food in the center. Animals were allowed to explore the open field for 8 min and the latency to feed (s) was recorded.
Chronic Unpredictable Stress (CUS) Conditions: Rats were exposed to a variable sequence of 12 unpredictable stressors, preventing habituation as described (Li, N. et al., Biol Psychiatry 69(8): 754-61 (2011)). The following twelve stressors were applied (2 per day, for 25 days): cage rotation, light on, light off, cold stress, isolation, swim stress, food and water deprivation, wet bedding, stroboscope, cage tilt, odor exposure and group housing. The animals in non-stressed (NS) groups were housed normally without the application of external stressors. Both NS and CUS rats were handled and weighed weekly.
Study Design. Thirty-two (32) male Sprague Dawley Male rats weighing between 175 and 200 g were randomized into 4 study groups (n=8/treatment group), following a 5-day acclimation period. On study day 0, rats received a single dose of either saline (Sal) or ketamine (Ket) in Groups 1 and 2, respectively, by intraperitoneal injection (i.p.). The rats in Group 3 and 4 received a single dose of the NV-5138 vehicle (Veh, 0.5% Methylcellulose/0.1% Tween-80) or NV-5138 (160 mg/kg), respectively, by oral gavage. All rats were subjected to the FUST on day 1, 24 hrs after dosing. On day 2, 48 hrs after dosing, the LMA of all rats was measured in an open field. Rats were then fasted for 20 hrs and subjected to the NSFT, 72 hrs post-dose.
Study Design: Fifty-six (56) male rats weighing between 175 and 200 g were randomized into 4 study groups (n=14/group), following a 5-day acclimation period. On study day minus 20, two groups of rats were subjected to CUS for 25 days and two groups of rats were housed normally serving as the NS group. On the day 21 of the CUS protocol, rats received a single dose of either Veh or NV-5138 (160 mg/kg) by oral gavage (day 0). The SPT and NSFT were performed 24 and 48 hrs post-administration (days 1 and 2), respectively. Upon completion of the behavioral tests, after 25 days of the CUS protocol a second dose of NV-5138 or Veh was administered on day 5 and rats were sacrificed 24 hrs later by conscious decapitation. Crude synaptosomes were prepared from the PFC and the synaptic proteins, GluR1 and PSD95 were quantitated by WB.
Study Design. Twenty (20) male rats weighing between 175 and 200 g were randomized into 3 study groups (n=6-7/group), following a 5-day acclimation period. All rats were surgically implanted with bilateral IT cannulas in the PFC 2 weeks prior to dosing. […] Thirty minutes following the intrathecal infusions, either NV-5138 vehicle (Veh-NV, 0.5% methylcellulose/0.1% Tween-80) or NV-5138 (160 mg/kg) was administered by oral gavage. Each treatment group was assessed at the designated time following oral dosing in FST 24 hrs (day 1) LMA 48 hrs (day 2) and the NSFT 72 hrs (day 3 following a 20 hr period of fasting). LMA was measured to rule out overall changes in generally locomotor activity. The study design is presented in Table 11 with timeline of surgical procedures, test article administration and behavioral tests is provided in FIG. 20
Study Design. Forty-eight (48) male rats weighing between 175 and 200 g were randomized into 6 study groups (n=8/group), following a 5-day acclimation period. A single dose of all test articles was administered on day 0 and the behavioral tests were performed 3, 7 and 10 days later. Groups 1 and 2 were dosed on day 0 with NV-5138 (160 mg/kg by oral gavage) and Ket (10 mg/kg by i.p. injection), respectively and subjected to a FST on day 3. […]

[3] = target: T1, Sestrin2 (Homo sapiens, UniProt P58004); test: Indirect ligand binding assay (ILBA, Method 7), immunoprecipitation with CST anti-Sestrin2 antibody; design: endogenous in cells; host or cells: unnamed human cell line (crude lysate after 1 h amino acid starvation); settings: crude lysate of amino acid-starved human cell line; 1 hour incubation
T1 sequence (P58004 1-480): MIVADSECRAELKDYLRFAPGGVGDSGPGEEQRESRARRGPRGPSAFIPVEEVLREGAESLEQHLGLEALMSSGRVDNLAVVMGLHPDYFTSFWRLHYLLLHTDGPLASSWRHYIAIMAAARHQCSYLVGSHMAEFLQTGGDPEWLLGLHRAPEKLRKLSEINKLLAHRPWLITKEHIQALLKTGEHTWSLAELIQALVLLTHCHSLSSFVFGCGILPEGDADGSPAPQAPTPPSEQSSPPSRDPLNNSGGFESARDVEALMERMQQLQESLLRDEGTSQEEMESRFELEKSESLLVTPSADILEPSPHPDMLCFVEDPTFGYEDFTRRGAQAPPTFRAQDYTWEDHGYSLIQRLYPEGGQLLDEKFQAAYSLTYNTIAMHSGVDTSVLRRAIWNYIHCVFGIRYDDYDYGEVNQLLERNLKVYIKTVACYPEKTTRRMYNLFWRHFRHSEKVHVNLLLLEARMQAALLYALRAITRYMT
Experimental: Conversely, compounds that destabilized Sestrin2 as measured by thermal shift assay increased the affinity of the CST antibody for non-denatured Sestrin2. […] In one version, the assay was performed with crude lysate generated from a human cell line after a 1-hour period of amino acid starvation (cells are lysed in 1% Triton, 10 mM beta-glycerol phosphate, 10 mM sodium pyrophosphate, 40 mM HEPES [pH 7.4], 150 mM NaCl and 2.5 mM MgCl2). […] After compound incubation, samples were subjected to immunoprecipitation with the CST anti-Sestrin2 antibody for 1.5 hours followed by a 30-minute incubation with protein-A sepharose as described in L. Chantranupong, et al., Cell Reports 9:1-8 (2014). The sepharose conjugated antibody-protein complex was precipitated via centrifugation and the flow-through was subjected to a second round of immunoprecipitation with a rabbit polyclonal anti-Sestrin2 antibody (Protein Tech, #10795-1-AP) to determine that total Sestrin2 protein levels between samples were equal. SDS-PAGE was performed with the immunoprecipitation samples followed by western-blot with the mouse monoclonal anti-Sestrin2 antibody from SIGMA (cat #WH0083667M3). […] This version of the assay also measured increased instability of Sestrin2 induced by incubation with compounds.

[4] = tested on: point mutant form of Sestrin2 unable to bind leucine; test: ILBA with Flag-tagged point mutant Sestrin2; type: binding, human
Experimental: This assay was also performed in cultured human cells over-expressing Sestrin2 N-terminally fused to a Flag tag. In this version of the assay, the procedure remained the same, but immunoblotting was performed with a mouse anti-Flag antibody (#F3165, SIGMA).

| Compound | animals that developed mild emesis ([1]; half of the animals (6 out of the 12 dosed)) | HTT, number of threat postures ([1]; twenty-four hours after acute administration) | NSFT [2] | decrease in intensity of the Sestrin2 band (immunoprecipitated with CST anti-Sestrin2 antibody) [3] | decrease in affinity of the CST antibody upon ligand binding [4] |
| --- | --- | --- | --- | --- | --- |
| CNC1(c2ccccc2Cl)CCCCC1=O (centres unmarked) [Ketamine, reference compound] | 6 animals | induces an anxiolytic/antidepressant-like profile | significant effects | – | – |
| CC(C)C[C@H](N)C(=O)O [leucine] | – | – | – | ≥ 50% | not observed |
